Source: patent US11590116B2 (THERAVANCE BIOPHARMA R&D IP, LLC, priority 2019, dated 2023)

Legend:
[1] = target: T1, recombinant human ALK5 (TGF-βR1) protein (Homo sapiens, UniProt P36897); assay: Biochemical ALK5 (TGF-βR1) assay to measure pKi (LANCE Ultra ULight kinase assay); details: apparent pKi from pIC50 by Cheng-Prusoff, read-out: ALK5 pKi (converted)
T1 construct: purchased Life Technologies PR9075A
T1 sequence (P36897 34-503): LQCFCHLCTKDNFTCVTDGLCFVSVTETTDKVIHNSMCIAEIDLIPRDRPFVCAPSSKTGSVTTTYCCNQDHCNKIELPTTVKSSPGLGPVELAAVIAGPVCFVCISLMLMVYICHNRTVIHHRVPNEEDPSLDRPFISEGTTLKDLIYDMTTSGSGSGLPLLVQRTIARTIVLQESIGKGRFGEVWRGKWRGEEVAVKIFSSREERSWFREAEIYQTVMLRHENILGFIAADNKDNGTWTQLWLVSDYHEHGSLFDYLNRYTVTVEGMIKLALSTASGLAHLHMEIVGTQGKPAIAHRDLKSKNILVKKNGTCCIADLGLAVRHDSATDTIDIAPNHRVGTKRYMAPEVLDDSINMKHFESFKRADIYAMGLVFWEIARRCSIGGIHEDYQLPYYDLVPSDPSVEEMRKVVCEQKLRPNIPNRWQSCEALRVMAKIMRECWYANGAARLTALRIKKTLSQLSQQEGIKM
How it was run: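 After a 60 min room-temperature preincubation of ALK5 with compound, phosphorylation proceeds 60 min at 37 °C on ATP addition (125 μM as 5× stock). Detection: Eu-labelled phospho-Thr1342 Topo IIα antibody in EDTA buffer, pH 7.0; emission 665 nm.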

[2] = system: TGF-β-stimulated SMAD3 phosphorylation in BEAS-2B cells; assay: Cellular ALK5 potency assay, inhibition of TGF-β stimulated pSMAD3 formation in BEAS-2B cells; type: cell-based; details: Homo sapiens; inhibition of TGF-β stimulated pSMAD3 formation, BEAS-2B cells; read-out: BEAS2B pIC50 (converted)
How it was run: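 Potency is reported as pIC50, derived from concentration-dependent reduction of pSMAD3 AlphaLISA signal against TGF-β-stimulated cells without compound. BEAS-2B cells received compound for 1 h before a 30-min stimulation with 10 ng/mL TGF-β.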

SMILES	Ki [1] [nM]	IC50 [2] [nM]
Cc1cccc(-c2[nH]cnc2-c2ccc3ncc(NCCN4CCC[C@@H](N)C4)cc3c2)n1 [Compound 730, N-[2-[(3R)-3-amino-1-piperidyl]ethyl]-6-[5-(6-methyl-2-pyridyl)-1H-imidazol-4-yl]quinolin-3-amine]	0.0398 to 0.316	25.1 to 158
CC(=O)Oc1cnc2ccc(-c3cn[nH]c3-c3cccc(C)n3)cc2c1 [Compound 731, [6-[5-(6-methyl-2-pyridyl)-1H-pyrazol-4-yl]-3-quinolyl]acetate]	0.0398 to 0.316	< 20
COC(=O)c1cnc2ccc(-c3nc[nH]c3-c3cccc(C)n3)cc2c1 [Compound 732, methyl 6-[5-(6-methyl-2-pyridyl)-1H-imidazol-4-yl]quinoline-3-carboxylate]	0.0398 to 0.316	< 20
Cc1cccc(-c2[nH]cnc2-c2ccc3ncc(NCCN4CC5(CCCNC5)C4)cc3c2)n1 [Compound 733, N-[2-(2,8-diazaspiro[3.5]nonan-2-yl)ethyl]-6-[5-(6-methyl-2-pyridyl)-1H-imidazol-4-yl]quinolin-3-amine]	0.0398 to 0.316	200 to 1260
Cc1cccc(-c2[nH]cnc2-c2ccc3ncc(-c4cnc5c(c4)CCC5N)cc3c2)n1 (centres unmarked) [Compound 734, 3-[6-[5-(6-methyl-2-pyridyl)-1H-imidazol-4-yl]-3-quinolyl]-6,7-dihydro-5H-cyclopenta[b]pyridin-7-amine]	0.0398 to 0.316	25.1 to 158
Cc1cccc(-c2[nH]cnc2-c2ccc3ncc(NCCN4CC5(CCNCC5)C4)cc3c2)n1 [Compound 735, N-[2-(2,7-diazaspiro[3.5]nonan-2-yl)ethyl]-6-[5-(6-methyl-2-pyridyl)-1H-imidazol-4-yl]quinolin-3-amine]	0.0398 to 0.316	200 to 1260
Cc1cccc(-c2[nH]cnc2-c2ccc3ncc(-c4cccc(C(=O)O[C@@H]5CCNC5)c4)cc3c2)n1 [Compound 736, [(3R)-pyrrolidin-3-yl] 3-[6-[5-(6-methyl-2-pyridyl)-1H-imidazol-4-yl]-3-quinolyl]benzoate]	0.0398 to 0.316	25.1 to 158
Cc1cccc(-c2[nH]cnc2-c2ccc3ncc(C(=O)OCCN4CCCC4)cc3c2)n1 [Compound 737, 2-pyrrolidin-1-ylethyl 6-[5-(6-methyl-2-pyridyl)-1H-imidazol-4-yl]quinoline-3-carboxylate]	0.398 to 3.16	25.1 to 158
Cc1cccc(-c2[nH]cnc2-c2ccc3ncc(C(=O)OCCCN4CCCC4)cc3c2)n1 [Compound 738, 3-pyrrolidin-1-ylpropyl 6-[5-(6-methyl-2-pyridyl)-1H-imidazol-4-yl]quinoline-3-carboxylate]	0.0398 to 0.316	25.1 to 158
Cc1cccc(-c2[nH]cnc2-c2ccc3ncc(C(=O)OC4CNC4)cc3c2)n1 [Compound 739, azetidin-3-yl 6-[5-(6-methyl-2-pyridyl)-1H-imidazol-4-yl]quinoline-3-carboxylate]	0.0398 to 0.316	25.1 to 158
Cc1cccc(-c2[nH]cnc2-c2ccc3ncc(C(=O)OC4CCNCC4)cc3c2)n1 [Compound 740, piperidin-4-yl 6-(5-(6-methylpyridin-2-yl)-1H-imidazol-4-yl)quinoline-3-carboxylate]	0.0398 to 0.316	25.1 to 158
Cc1cccc(-c2[nH]cnc2-c2ccc3ncc(C(=O)OCC4CCNCC4)cc3c2)n1 [Compound 741, 4-piperidylmethyl 6-[5-(6-methyl-2-pyridyl)-1H-imidazol-4-yl]quinoline-3-carboxylate]	0.0398 to 0.316	25.1 to 158
Cc1cccc(-c2[nH]cnc2-c2ccc3ncc(-c4nc(C(=O)OC5CCNCC5)cs4)cc3c2)n1 [Compound 742, 4-piperidyl 2-[6-[5-(6-methyl-2-pyridyl)-1H-imidazol-4-yl]-3-quinolyl]thiazole-4-carboxylate]	0.0398 to 0.316	25.1 to 158
Cc1cccc(-c2[nH]cnc2-c2ccc3ncc(-c4nc(C(=O)O[C@@H]5CCNC5)cs4)cc3c2)n1 [Compound 743, [(3R)-pyrrolidin-3-yl]2-[6-[5-(6-methyl-2-pyridyl)-1H-imidazol-4-yl]-3-quinolyl]thiazole-4-carboxylate]	0.0398 to 0.316	25.1 to 158
Cc1cccc(-c2[nH]cnc2-c2ccc3ncc(-c4nc(C(=O)O[C@@H]5CCN(C)C5)cs4)cc3c2)n1 [Compound 744, [(3R)-1-methylpyrrolidin-3-yl] 2-[6-[5-(6-methyl-2-pyridyl)-1H-imidazol-4-yl]-3-quinolyl]thiazole-4-carboxylate]	0.0398 to 0.316	25.1 to 158
Cc1cccc(-c2[nH]cnc2-c2ccc3ncc(-c4nc(C(=O)OC5CNC5)cs4)cc3c2)n1 [Compound 745, azetidin-3-yl 2-[6-[5-(6-methyl-2-pyridyl)-1H-imidazol-4-yl]-3-quinolyl]thiazole-4-carboxylate]	0.0398 to 0.316	25.1 to 158
Cc1cccc(-c2[nH]cnc2-c2ccc3ncc(-c4nc(C(=O)OCC5CNC5)cs4)cc3c2)n1 [Compound 746, azetidin-3-ylmethyl 2-[6-[5-(6-methyl-2-pyridyl)-1H-imidazol-4-yl]-3-quinolyl]thiazole-4-carboxylate]	< 0.0316	25.1 to 158
Cc1cccc(-c2[nH]cnc2-c2ccc3ncc(-c4nc(C(=O)O[C@H]5CCN(C)C5)cs4)cc3c2)n1 [Compound 747, [(3S)-1-methylpyrrolidin-3-yl] 2-[6-[5-(6-methyl-2-pyridyl)-1H-imidazol-4-yl]-3-quinolyl]thiazole-4-carboxylate]	0.0398 to 0.316	< 20
Cc1cccc(-c2[nH]cnc2-c2ccc3ncc(-c4nc(C(=O)O[C@H]5CCNC5)cs4)cc3c2)n1 [Compound 748, (S)-pyrrolidin-3-yl 2-(6-(5-(6-methylpyridin-2-yl)-1H-imidazol-4-yl)quinolin-3-yl)thiazole-4-carboxylate]	0.0398 to 0.316	25.1 to 158
Cc1cccc(-c2[nH]cnc2-c2ccc3ncc(-c4csc(C(=O)O[C@@H]5CCNC5)c4)cc3c2)n1 [Compound 749, [(3R)-pyrrolidin-3-yl] 4-[6-[5-(6-methyl-2-pyridyl)-1H-imidazol-4-yl]-3-quinolyl]thiophene-2-carboxylate]	< 0.0316	25.1 to 158
Cc1cccc(-c2[nH]cnc2-c2ccc3ncc(-c4csc(C(=O)O[C@@H]5CCN(C)C5)c4)cc3c2)n1 [Compound 750, [(3R)-1-methylpyrrolidin-3-yl] 4-[6-[5-(6-methyl-2-pyridyl)-1H-imidazol-4-yl]-3-quinolyl]thiophene-2-carboxylate]	0.0398 to 0.316	< 20
Cc1cccc(-c2[nH]cnc2-c2ccc3ncc(-c4csc(C(=O)OC5CCNCC5)c4)cc3c2)n1 [Compound 751, 4-piperidyl 4-[6-[5-(6-methyl-2-pyridyl)-1H-imidazol-4-yl]-3-quinolyl]thiophene-2-carboxylate]	< 0.0316	25.1 to 158
Cc1cccc(-c2[nH]cnc2-c2ccc3ncc(-c4csc(C(=O)OC5CNC5)c4)cc3c2)n1 [Compound 752, azetidin-3-yl 4-[6-[5-(6-methyl-2-pyridyl)-1H-imidazol-4-yl]-3-quinolyl]thiophene-2-carboxylate]	0.0398 to 0.316	25.1 to 158
Cc1cccc(-c2[nH]cnc2-c2ccc3ncc(-c4csc(C(=O)OCC5CNC5)c4)cc3c2)n1 [Compound 753, azetidin-3-ylmethyl 4-(6-(5-(6-methylpyridin-2-yl)-1H-imidazol-4-yl)quinolin-3-yl)thiophene-2-carboxylate]	0.0398 to 0.316	25.1 to 158
Cc1cccc(-c2[nH]cnc2-c2ccc3ncc(-c4csc(C(=O)O[C@H]5CCNC5)c4)cc3c2)n1 [Compound 754, [(3S)-pyrrolidin-3-yl] 4-[6-[5-(6-methyl-2-pyridyl)-1H-imidazol-4-yl]-3-quinolyl]thiophene-2-carboxylate]	0.0398 to 0.316	25.1 to 158
Cc1cccc(-c2[nH]cnc2-c2ccc3ncc(-c4csc(C(=O)O[C@H]5CCN(C)C5)c4)cc3c2)n1 [Compound 755, [(3S)-1-methylpyrrolidin-3-yl] 4-[6-[5-(6-methyl-2-pyridyl)-1H-imidazol-4-yl]-3-quinolyl]thiophene-2-carboxylate]	0.0398 to 0.316	< 20
Cc1cccc(-c2[nH]cnc2-c2ccc3ncc(C(=O)OCCN4CCNCC4)cc3c2)n1 [Compound 756, 2-(piperazin-1-yl)ethyl 6-(5-(6-methylpyridin-2-yl)-1H-imidazol-4-yl)quinoline-3-carboxylate]	0.0398 to 0.316	25.1 to 158
Cc1cccc(-c2[nH]cnc2-c2ccc3ncc(C(=O)O[C@H]4CCNC4)cc3c2)n1 [Compound 757, [(3S)-pyrrolidin-3-yl] 6-[5-(6-methyl-2-pyridyl)-1H-imidazol-4-yl]quinoline-3-carboxylate]	0.398 to 3.16	25.1 to 158
